Patent US20260226071A1, “2, 4-DIANILINOPYRIMIDINE-BASED AURORA-A KINASE SELECTIVE DEGRADATION INDUCING COMPOUNDS” (UPPTHERA, INC., priority 2023, published 2026)

Target: T1, Aurora kinase A (AURKA) (Homo sapiens, UniProt O14965)
T1 construct: endogenous in cells; host or cells: HeLa LgBit (AURKA-HiBit KI), CRISPR/Cas9 knock-in at the endogenous AURKA locus
T1 sequence (O14965 1-403): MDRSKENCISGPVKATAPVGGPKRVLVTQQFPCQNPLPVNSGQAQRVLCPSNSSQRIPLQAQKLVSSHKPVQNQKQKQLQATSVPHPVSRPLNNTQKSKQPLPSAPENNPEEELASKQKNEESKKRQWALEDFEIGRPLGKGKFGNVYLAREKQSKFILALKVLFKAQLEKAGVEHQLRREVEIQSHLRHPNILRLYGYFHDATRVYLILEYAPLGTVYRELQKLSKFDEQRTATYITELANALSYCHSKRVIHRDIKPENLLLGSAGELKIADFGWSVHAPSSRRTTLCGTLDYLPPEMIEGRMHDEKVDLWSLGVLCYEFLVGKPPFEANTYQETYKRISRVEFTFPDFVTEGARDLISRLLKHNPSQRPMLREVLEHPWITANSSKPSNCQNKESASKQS
Test: Luciferase assay for AURKA in HeLa LgBit (AURKA-HiBit KI) cell line
Format: cell-based
Conditions: HeLa LgBit (AURKA-HiBit KI) cells, measured after 12 hours
Source text: HeLa cell lines that stably express LgBit were constructed via LgBit vector transfection. Then, donor DNA and guide RNA for insertion of HiBit amino acid sequence at C-terminus of inherent Aurora kinase A (AURKA) genes were designed and constructed. Thereafter, they were transfected into the cell lines with CRISPR/Cas9 expression vector system. HiBit gene knock-in single cells were selected, passaged and used for the experiments.
For cell culture, DMEM (Gibco, Cat. No. 11995-065; Lot. No. 2562497), FBS (Gibco, Cat. No. 16000-044; Lot. No. 2511328P), Penicillin/Streptomycin (PS) (Gibco, Cat. No. 15140-122; Lot. No. 2585636), 90 mm^2 cell culture dish (SPL, Cat. No. 20100), 96-well white plate, PBS pH 7.4 (Gibco, […]), TrypLE™ Express (Gibco, Cat. No. 12605-010; Lot. No. 2522525), counting chamber (hematocytometer) (Hirschmann, Cat. No. 8100204; Lot. No. 8021087) and 0.4% Trypan Blue solution (DYNEBIO, Cat. No. CBT3710; Lot. No. 20231017) were used. Cells were cultured in DMEM supplemented with 10% FBS and 1% PS and incubated in CO2 incubator (Thermo, Cat. No. 4111) at 37° C., 5% CO2 condition.
HeLa LgBit (AURKA-HiBit KI) cell lines were cultured in 90 mm^2 cell culture dish, and 3×10^4 cells in […] of total medium volume were seeded and incubated for 18 hours in CO2 incubator. Then, Eudurazine (Promega, Cat. No. N247B; Lot. No. 495218) was added to each well to make up 1% of the total volume, followed by further incubation for 2 hours in CO2 incubator.
The present compounds were fully dissolved in DMSO (Sigma-Aldrich Cat. No. D2438, Lot. No. RNBL7287) and 10 nM or 100 nM of total concentration were used in the experiment. After adding the compounds in each well of 96-well white plate, the plate was placed in the plate reader (BMG Labtech, CLARIOstar Plus) for real-time analysis. The wavelength for analysis was set to […], and the luminescence value was measured after 12 hours. The luminescence value was analyzed through an Excel program.

SMILES | luminescence value (Level) (10 nM compound) | luminescence value (Level) (100 nM compound)
O=C1CCC(c2ccc(N3CCC(CCN4CCC(NC(=O)c5ccc(Nc6ncc(F)c(Nc7ccc(C(=O)Nc8ccccc8Cl)cc7)n6)cc5)CC4)CC3)cc2)C(=O)N1 (centres unmarked) [Compound 19, N-(2-chlorophenyl)-4-((2-((4-((1-(2-(1-(4-(2,6-dioxopiperidin-3-yl)phenyl)piperidin-4-yl)ethyl)piperidin-4-yl)carbamoyl)phenyl)amino)-5-fluoropyrimidin-4-yl)amino) benzamide] | C (C is 0.5 to 0.7) | B (B is 0.2 to 0.4)
O=C1CCC(Nc2ccc(N3CC4(CN(CC5CCN(C(=O)c6ccc(Nc7ncc(F)c(Nc8ccc(C(=O)Nc9ccccc9Cl)cc8)n7)cc6)CC5)C4)C3)cc2)C(=O)N1 (centres unmarked) [Compound 42, N-(2-chlorophenyl)-4-((2-((4-(4-((6-(4-((2,6-dioxopiperidin-3-yl)amino)phenyl)-2,6-diazaspiro[3.3]heptan-2-yl)methyl)piperidine-1-carbonyl)phenyl)amino)-5-fluoropyrimidin-4-yl)amino)benzamide] | B (B is 0.3 to 0.5) | A (A is <0.2)
O=C1CCC(Nc2ccc(N3C[C@@H]4[C@@H](CN5CCC(NC(=O)c6ccc(Nc7ncc(F)c(Nc8ccc(C(=O)Nc9ccccc9Cl)cc8)n7)cc6)CC5)[C@@H]4C3)cc2)C(=O)N1 (stereo partly drawn) [Compound 27, N-(2-chlorophenyl)-4-((2-((4-((1-(((1R,5S,6s)-3-(4-((2,6-dioxopiperidin-3-yl)amino)phenyl)-3-azabicyclo[3.1.0]hexan-6-yl)methyl)piperidin-4-yl)carbamoyl)phenyl)amino)-5-fluoropyrimidin-4-yl)amino)benzamide] | B (B is 0.3 to 0.5) | B (B is 0.2 to 0.4)
O=C1CCC(Nc2ccc(N3CCC(CN4CCC5(CCN(C(=O)c6ccc(Nc7ncc(F)c(Nc8ccc(C(=O)Nc9ccccc9Cl)cc8)n7)cc6)C5)C4)CC3)cc2)C(=O)N1 (centres unmarked) [Compound 32, N-(2-chlorophenyl)-4-((2-((4-(7-((1-(4-((2,6-dioxopiperidin-3-yl)amino)phenyl)piperidin-4-yl)methyl)-2,7-diazaspiro[4.4]nonane-2-carbonyl)phenyl)amino)-5-fluoropyrimidin-4-yl)amino)benzamide] | B (B is 0.3 to 0.5) | B (B is 0.2 to 0.4)
O=C1CCC(c2ccc(N3CCN(CCC4CCN(NC(=O)c5ccc(Nc6ncc(F)c(Nc7ccc(C(=O)Nc8ccccc8Cl)cc7)n6)nc5)CC4)CC3)cc2)C(=O)N1 (centres unmarked) [Compound 91, 6-[[4-[4-[(2-chlorophenyl)carbamoyl]anilino]-5-fluoro-pyrimidin-2-yl]amino]-N-[4-[2-[4-[4-(2,6-dioxo-3-piperidyl)phenyl]piperazin-1-yl]ethyl]-1-piperidyl]pyridine-3-carboxamide] | D (D is 0.7 to 0.8) | C (C is 0.4 to 0.6)
O=C1CC[C@H](NC(=O)c2ccc(N3CCN(CCC4CCN(NC(=O)c5ccc(Nc6ncc(F)c(Nc7ccc(C(=O)Nc8ccccc8Cl)cc7)n6)cc5)CC4)CC3)cc2F)C(=O)N1 [Compound 89, (S)-4-(4-(2-(1-(4-((4-((4-((2-chlorophenyl)carbamoyl)phenyl)amino)-5-fluoropyrimidin-2-yl)amino)benzamido)piperidin-4-yl)ethyl)piperazin-1-yl)-N-(2,6-dioxopiperidin-3-yl)-2-fluorobenzamide] | B (B is 0.3 to 0.5) | B (B is 0.2 to 0.4)
Cc1cc(Nc2nc(Nc3ccc(C(=O)NN4CCC(CCN5CCN(c6ccc(C7CCC(=O)NC7=O)cc6)CC5)CC4)cc3)ncc2F)n[nH]1 (centres unmarked) [Compound 59, N-(4-(2-(4-(4-(2,6-dioxopiperidin-3-yl)phenyl)piperazin-1-yl)ethyl)piperidin-1-yl)-4-((5-fluoro-4-((5-methyl-1H-pyrazol-3-yl)amino)pyrimidin-2-yl)amino)benzamide] | C (C is 0.5 to 0.7) | A (A is <0.2)
